Measured values taken from patent US9266904B2, “6-bridged heteroaryldihydropyrimidines for the treatment and prophylaxis of hepatitis B virus infection” (priority 2013, dated 2016).
Converted amounts (≈) assume the structure as drawn. Where two headings read alike, the source gives them in different places.

Tests used:
HepDE19 cells = experiment: Cytotoxicity (CCK-8 cell viability) and selectivity index; format: cell-based, human; details: for CC50: cytotoxicity, concentration resulting in death of 50% of host cells; for Selectivity index (CC50/EC50): CC50 value/EC50 value
Text: (§1) HepG2.2.15 and HepDE19 are stably-transfected cell lines containing the HBV genome. Both cell lines are derived from the hepatoblastoma cell line Hep G2 (American Type Culture Collection, ATCC® HB-8065™) by the published procedures described in references: M A Selles et al. Proc. Natl. Acad. Sci. USA 1987, 84, 1005-1009 and H Guo et al. Journal of Virology 2007, 81, 12472-12484, respectively. Both cell lines were maintained in Dulbecco's modified Eagle's medium (DMEM)-F12 medium supplemented with 10% fetal bovine serum, 100 U/mL penicillin, 100 μg/mL streptomycin, and 0.5 mg/mL of G418.
(§2) In a cell culture model, apparent antiviral activity of a compound can be the result of host cell death after exposure to the compound. To determine whether the anti-HBV effect of a test compound is due to cytotoxicity, HepDE19 cells were seeded into 96-well plates (5×10^3 cells per well) and treated with compounds as described above for EC50 determination. Five days after treatment, cell viability was measured by addition of 20 μL of CCK-8 reagent. Two hours after incubation at 37° C., the absorbance at wavelengths of 450 nm and 630 nm (OD450 and OD630) was recorded by a plate reader. The concentration results in the death of 50% of the host cells (CC50) of each compound was determined (See Table 5).

[1] = Human microsomal clearance assay; format: in vitro ADME
How it was run: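 Liver microsomes (0.5 mg/mL protein) were incubated with 1 μM compound at 37 °C, pH 7.4 phosphate, with an NADPH-regenerating system. Samples at 0-30 min were quenched and measured by LC-MS/MS for parent loss. No-NADPH controls were included.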

[2] = tested on: HBV replication in HepG2.2.15 cells; experiment: Anti-HBV activity in vitro in HepG2.2.15 cells (extracellular HBV DNA by qPCR); format: cell-based; details: read-out: EC50
How it was run: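 Constitutively HBV-producing HepG2.2.15 cells were seeded overnight at 37 °C, then treated with half-log serial dilutions of compound (0.5% DMSO final) for five days. Supernatant HBV DNA was extracted and quantified by qPCR; EC50 is the concentration inhibiting HBV replication by 50%.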

[3] = Lyophilisation solubility assay (Lysa); format: physicochemical; details: for solubility thermodynamic: pH 6.5, aqueous buffer, thermodynamic from solid
Protocol: The aqueous solubility is an important physico-chemical property that plays a significant role in various physical and biological processes. It is desirable to have good solubility which enables good permeability and gastric and intestinal absorption, linear dose proportionality, less PK variability, and easy formulation for PD/PK studies. […] Lyophilisation solubility assay (Lysa) is a well adopted high throughput assay to measure compound solubility in industry.
Samples are prepared in duplicate from 10 mM DMSO stock solutions. After evaporation of DMSO with a centrifugal vacuum evaporator, the residue is solved in 0.05 M phosphate buffer (pH 6.5), stirred for one hour and then shook for two hours. After one night, the solution is filtered using a microtiter filter plate and then the filtrate and its 1/10 dilution are then analyzed by direct UV measurement or by HPLC-UV. In addition a four-point calibration curve is prepared from the 10 mM stock solutions and used for the solubility determination of the compounds. The results are in μg/ml. In case the percentage of sample measured in solution after evaporation divided by the calculated maximum of sample amount is bigger than 80% the solubility is reported as bigger than this value.

[4] = Cytotoxicity (CCK-8 cell viability) and selectivity index; format: cell-based, human; details: human, HepDE19 cells; cytotoxicity, concentration resulting in death of 50% of host cells
Text: as §1, §2

[5] = Anti-HBV activity in HepG2.2.15 cells
[6] = Hepatitis B virus, HepG2.2.15, Anti-HBV activity in HepG2.2.15 cells

COC(=O)C1=C(CN2[C@@H]3C[C@@H](CC(=O)O)C[C@H]2C(F)(F)C3)NC(c2nccs2)=N[C@H]1c1ccc(Cl)c(F)c1 (single isomer, unassigned) [Example 113, 2-[(1R,3R,5S)-8-[[(4S)-4-(4-chloro-3-fluoro-phenyl)-5-methoxycarbonyl-2-thiazol-2-yl-1,4-dihydropyrimidin-6-yl]methyl]-6,6-difluoro-8-azabicyclo[3.2.1]octan-3-yl]acetic acid or 2-[(1S,3S,5R)-8-[[(4S)-4-(4-chloro-3-fluoro-phenyl)-5-methoxycarbonyl-2-thiazol-2-yl-1,4-dihydropyrimidin-6-yl]methyl]-6,6-difluoro-8-azabicyclo[3.2.1]octan-3-yl]acetic acid]
CC50 (HepDE19 cells): 58000 nM | CLh ([1]; human microsomal clearance): 6.2 mL/min/kg | EC50 [2, 5]: 9.1 nM

COC(=O)C1=C(CN2[C@H]3COC[C@@H]2C(F)(F)[C@H](CC(=O)O)C3)NC(c2nccs2)=N[C@H]1c1ccc(F)c(F)c1Cl (single isomer, unassigned) [Example 131, 2-[(1R,5R,7S)-9-[[(4R)-4-(2-chloro-3,4-difluoro-phenyl)-5-methoxycarbonyl-2-thiazol-2-yl-1,4-dihydropyrimidin-6-yl]methyl]-6,6-difluoro-3-oxa-9-azabicyclo[3.3.1]nonan-7-yl]acetic acid or 2-[(1S,5S,7R)-9-[[(4R)-4-(2-chloro-3,4-difluoro-phenyl)-5-methoxycarbonyl-2-thiazol-2-yl-1,4-dihydropyrimidin-6-yl]methyl]-6,6-difluoro-3-oxa-9-azabicyclo[3.3.1]nonan-7-yl]acetic acid]
CC50 (HepDE19 cells): 53000 nM | CLh ([1]; human microsomal clearance): 0 mL/min/kg | Lysa ([3]; 0.05 M phosphate buffer (pH 6.5), reported as bigger than the value if more than 80% of the sample is in solution): 261 µg/mL | EC50 [2, 5]: 5.7 nM

COC(=O)C1=C(CN2C3COCC2CC(O)C3)NC(c2nccs2)=N[C@H]1c1ccc(F)cc1Cl (stereo partly drawn) [Example 7, (R)-4-(2-Chloro-4-fluoro-phenyl)-6-(7-hydroxy-3-oxa-9-aza-bicyclo[3.3.1]non-9-ylmethyl)-2-thiazol-2-yl-1,4-dihydro-pyrimidine-5-carboxylic acid methyl ester]
Selectivity index (CC50/EC50) (HepDE19 cells): >8333 | CC50 at 5 days [4]: > 100000 nM | EC50 [2, 6]: 12 nM

COC(=O)C1=C(CN2C3COCC2CN(CC(F)F)C3)NC(c2nccs2)=N[C@H]1c1ccc(F)cc1Cl [Example 14, (R)-4-(2-Chloro-4-fluoro-phenyl)-6-[7-(2,2-difluoro-ethyl)-3-oxa-7,9-diaza-bicyclo[3.3.1]non-9-ylmethyl]-2-thiazol-2-yl-1,4-dihydro-pyrimidine-5-carboxylic acid methyl ester]
Selectivity index (CC50/EC50) (HepDE19 cells): >7692 | CC50 at 5 days [4]: > 100000 nM | EC50 [2, 6]: 13 nM

COC(=O)C1=C(CN2[C@@H]3C[C@H](CC(=O)O)C[C@H]2C(F)(F)C3)NC(c2nccs2)=N[C@H]1c1ccc(F)c(F)c1 [Example 114, 2-[(1R,3S,5S)-8-[[(4S)-4-(3,4-difluorophenyl)-5-methoxycarbonyl-2-thiazol-2-yl-1,4-dihydropyrimidin-6-yl]methyl]-6,6-difluoro-8-azabicyclo[3.2.1]octan-3-yl]acetic acid]
CLh ([1]; human, 1 μM, pH 7.4): 1.2 mL/min/kg | solubility thermodynamic [3]: 224 µg/mL (≈ 405 µM) | EC50 [2, 6]: 6.3 nM

COC(=O)C1=C(CN2[C@H]3C[C@@H](CC(=O)O)C[C@@H]2C(F)(F)C3)NC(c2nccs2)=N[C@H]1c1ccc(F)c(F)c1 [Example 115, 2-[(1S,3R,5R)-8-[[(4S)-4-(3,4-difluoro-phenyl)-5-methoxycarbonyl-2-thiazol-2-yl-1,4-dihydropyrimidin-6-yl]methyl]-6,6-difluoro-8-azabicyclo[3.2.1]octan-3-yl]acetic acid]
CLh ([1]; human, 1 μM, pH 7.4): 4.6 mL/min/kg | solubility thermodynamic [3]: 128 µg/mL (≈ 232 µM) | EC50 [2, 6]: 163 nM

COC(=O)C1=C(CN2C3COCC2C(O)[C@H](CC(=O)O)C3)NC(c2nccs2)=N[C@H]1c1ccc(F)cc1Cl (stereo partly drawn) [Example 123, 2-[(7S)-9-[[(4R)-4-(2-chloro-4-fluoro-phenyl)-5-methoxycarbonyl-2-thiazol-2-yl-1,4-dihydropyrimidin-6-yl]methyl]-6-hydroxy-3-oxa-9-azabicyclo[3.3.1]nonan-7-yl]acetic acid]
CLh ([1]; human, 1 μM, pH 7.4): 3.0 mL/min/kg | solubility thermodynamic [3]: > 753 µg/mL | EC50 [2, 6]: 35.7 nM

COC(=O)C1=C(CN2C3COCC2C(O)[C@@H](CC(=O)O)C3)NC(c2nccs2)=N[C@H]1c1ccc(F)cc1Cl (stereo partly drawn) [Example 124, 2-[(7R)-9-[[(4R)-4-(2-chloro-4-fluoro-phenyl)-5-methoxycarbonyl-2-thiazol-2-yl-1,4-dihydropyrimidin-6-yl]methyl]-6-hydroxy-3-oxa-9-azabicyclo[3.3.1]nonan-7-yl]acetic acid]
CLh ([1]; human, 1 μM, pH 7.4): 4.2 mL/min/kg | solubility thermodynamic [3]: > 753 µg/mL | EC50 [2, 6]: 296 nM

COC(=O)C1=C(CN2C3COCC2C(F)(F)[C@@H](CC(=O)O)C3)NC(c2nccs2)=N[C@H]1c1ccc(F)cc1Cl (stereo partly drawn) [Example 125, 2-[(7R)-9-[[(4R)-4-(2-chloro-4-fluoro-phenyl)-5-methoxycarbonyl-2-thiazol-2-yl-1,4-dihydropyrimidin-6-yl]methyl]-6,6-difluoro-3-oxa-9-azabicyclo[3.3.1]nonan-7-yl]acetic acid]
CLh ([1]; human, 1 μM, pH 7.4): 0 mL/min/kg | solubility thermodynamic [3]: 170 µg/mL (≈ 291 µM) | EC50 [2, 6]: 26.1 nM

COC(=O)C1=C(CN2C3COCC2CC(CC(=O)O)C3)NC(c2nccs2)=N[C@H]1c1ccccc1Br (stereo partly drawn) [Example 134, Endo-2-[9-[[(4R)-4-(2-bromophenyl)-5-methoxycarbonyl-2-thiazol-2-yl-1,4-dihydropyrimidin-6-yl]methyl]-3-oxa-9-azabicyclo[3.3.1]nonan-7-yl]acetic acid]
CLh ([1]; human, 1 μM, pH 7.4): 1.7 mL/min/kg | solubility thermodynamic [3]: > 695 µg/mL | EC50 [2, 6]: 21 nM

COC(=O)C1=C(CN2C3COCC2CC(CC(=O)O)C3)NC(c2nccs2)=N[C@H]1c1ccc(Cl)c(F)c1 (stereo partly drawn) [Example 136, Endo-2-[9-[[(4S)-4-(4-chloro-3-fluoro-phenyl)-5-methoxycarbonyl-2-thiazol-2-yl-1,4-dihydropyrimidin-6-yl]methyl]-3-oxa-9-azabicyclo[3.3.1]nonan-7-yl]acetic acid]
CLh ([1]; human, 1 μM, pH 7.4): 5.5 mL/min/kg | solubility thermodynamic [3]: 485 µg/mL (≈ 883 µM) | EC50 [2, 6]: 102 nM

COC(=O)C1=C(CN2C3COCC2CC(N)(C(=O)O)C3)NC(c2nccs2)=N[C@H]1c1ccc(F)cc1Cl (stereo partly drawn) [Example 139, 7-amino-9-[[(4R)-4-(2-chloro-4-fluoro-phenyl)-5-methoxycarbonyl-2-thiazol-2-yl-1,4-dihydropyrimidin-6-yl]methyl]-3-oxa-9-azabicyclo[3.3.1]nonane-7-carboxylic acid]
CLh ([1]; human, 1 μM, pH 7.4): 5.1 mL/min/kg | solubility thermodynamic [3]: > 610 µg/mL | EC50 [2, 6]: 172 nM

COC(=O)C1=C(CN2[C@H]3CC[C@]2(C(=O)O)CC3(F)F)NC(c2nccs2)=N[C@H]1c1ccc(F)cc1Cl [Example 148, (1S,4R)-7-[[(4R)-4-(2-chloro-4-fluoro-phenyl)-5-methoxycarbonyl-2-thiazol-2-yl-1,4-dihydropyrimidin-6-yl]methyl]-2,2-difluoro-7-azabicyclo[2.2.1]heptane-4-carboxylic acid]
CLh ([1]; human, 1 μM, pH 7.4): 2.3 mL/min/kg | solubility thermodynamic [3]: > 655 µg/mL | EC50 [2, 6]: 59.2 nM

COC(=O)C1=C(CN2[C@@H]3CC[C@@]2(C(=O)O)CC3(F)F)NC(c2nccs2)=N[C@H]1c1ccc(F)cc1Cl [Example 149, (1R,4S)-7-[[(4R)-4-(2-chloro-4-fluoro-phenyl)-5-methoxycarbonyl-2-thiazol-2-yl-1,4-dihydropyrimidin-6-yl]methyl]-2,2-difluoro-7-azabicyclo[2.2.1]heptane-4-carboxylic acid]
CLh ([1]; human, 1 μM, pH 7.4): 3.4 mL/min/kg | solubility thermodynamic [3]: > 665 µg/mL | EC50 [2, 6]: 4 nM
